Measured values from PMC5649189, “Bioactivity Potential of Prunus spinosa L. Flower Extracts: Phytochemical Profiling, Cellular Safety, Pro-inflammatory Enzymes Inhibition and Protective Effects Against Oxidative Stress In Vitro” (Frontiers in Pharmacology, 2017).

Target: T1, lipoxygenase from soybean (LOX)
T1 construct: gene LOX1.1; such preparations are usually mainly lipoxygenase-1
Assay: lipoxygenase inhibition assay, 96-well plate reader
Assay type: biochemical, Glycine max
Details: substrate linoleic acid; positive control; μg of standard per mL of the enzyme solution
Text: lipoxygenase inhibition assay, 96-well plate reader on lipoxygenase from soybean (LOX)

LOX / IC50 (μg/mL)^a	Structure (SMILES)
166.83 ± 7.15 µg/mL	O=C(/C=C/c1ccc(O)c(O)c1)O[C@@H]1C[C@](O)(C(=O)O)C[C@@H](O)[C@H]1O [CHA, 5-O-Caffeoylquinic acid]
92.60 ± 3.71 µg/mL	COc1ccc2c(c1)c(CC(=O)O)c(C)n2C(=O)c1ccc(Cl)cc1 [IND, indomethacin]
89.23 ± 2.13 µg/mL	O=c1c(O)c(-c2ccc(O)c(O)c2)oc2cc(O)cc(O)c12 [QU, quercetin]
162.70 ± 3.70 µg/mL	C[C@@H]1O[C@@H](OC[C@H]2O[C@@H](Oc3c(-c4ccc(O)c(O)c4)oc4cc(O)cc(O)c4c3=O)[C@H](O)[C@@H](O)[C@@H]2O)[C@H](O)[C@H](O)[C@H]1O [RT, Quercetin 3-O-(6′′-O-α-L-rhamnopyranosyl)-β-D-glucopyranoside]
